In patent US9994515B2, “Aryl naphthyl methanone oxime(s) and process for preparation thereof” (Council of Scientific & Industrial Research, priority 2013, dated 2018):
Structures can show the parent of a compound that is named as a salt.

Key:
K562 = assay: MTT cytotoxicity assay in K562 cells; assay type: cell-based; conditions: Table 1, MTT assay after 48 h treatment
HL60 = assay: MTT cytotoxicity assay in HL-60 cells; assay type: cell-based; conditions: Table 1, MTT assay after 48 h treatment
NIH3T3 = assay: MTT cytotoxicity assay in NIH3T3 fibroblasts; assay type: cell-based, mouse; conditions: Table 1, MTT assay after 48 h treatment
Procedure: To consider a molecule as a candidate compound in cancer drug therapy, the test compound must have specific cytotoxicity towards the cancer cells without affecting normal cell growth. Therefore, all active compounds were assessed for toxicity in non-cancer cell-lines: mouse fibroblast cell line (NIH3T3) and monkey kidney epithelial cells (Vero). […] Therefore, based on safety index ([…]), 5d [Centans; based on IUPAC name prefixed with Central Drug Research Institute's signature (Cent)] was selected as a lead compound.

melting point	Structure (SMILES)	IC50 (K562; Homo sapiens, K562, 48 h)	IC50 (HL60; Homo sapiens, HL-60, 48 h)	IC50 (NIH3T3; Mus musculus, NIH3T3, 48 h)	also measured
155 °C	CSc1ccc(/C(=N/OCCN2CCCCC2)c2cccc3ccccc23)cc1 (as salt: oxalate) [Compound 5a, (4-(methylthio)phenyl)(naphthalen-1-yl)methanone O-2-(piperidin-1-yl)ethyl oxime oxalate]	–	–	–	–
153 °C	CSc1ccc(/C(=N/OCCN2CCCC2)c2cccc3ccccc23)cc1 (as salt: oxalate) [Compound 5b, (4-(methylthio)phenyl)(naphthalen-1-yl)methanone O-2-(pyrrolidin-1-yl)ethyl oxime oxalate]	–	–	–	–
105 °C	CSc1ccc(/C(=N/OCCN(C)C)c2cccc3ccccc23)cc1 (as salt: oxalate) [Compound 5c, (4-(methylthio)phenyl)(naphthalen-1-yl)methanone O-2-(dimethylamino)ethyl oxime oxalate]	–	–	–	–
101 °C	CSc1ccc(/C(=N/OC(C)CN(C)C)c2cccc3ccccc23)cc1 (centres unmarked) (as salt: oxalate) [Compound 5g, (4-(methylthio)phenyl)(naphthalen-1-yl)methanone O-1-(dimethylamino)propan-2-yl oxime oxalate]	–	–	–	–
145 °C	CSc1ccc(/C(=N/OCCN2CCCCCC2)c2cccc3ccccc23)cc1 (as salt: oxalate) [Compound 5h, (4-(methylthio)phenyl)(naphthalen-1-yl)methanone O-2-(azepan-1-yl)ethyl oxime oxalate]	–	–	–	–
110 °C	CSc1ccc(/C(=N/OCCCN(C)C)c2cccc3ccccc23)cc1 (as salt: oxalate) [Compound 5m, (4-(methylthio)phenyl)(naphthalen-1-yl)methanone O-3-(dimethylamino)propyl oxime oxalate]	–	–	–	–
171 °C	COc1ccc(/C(=N/OCCN2CCCCC2)c2cccc3ccccc23)cc1 (as salt: oxalate) [Compound 6a, (4-methoxyphenyl)(naphthalen-1-yl)methanone O-2-(piperidin-1-yl)ethyl oxime oxalate]	–	–	–	–
158 °C	COc1ccc(/C(=N/OCCN2CCCC2)c2cccc3ccccc23)cc1 (as salt: oxalate) [Compound 6b, (4-methoxyphenyl)(naphthalen-1-yl)methanone O-2-(pyrrolidin-1-yl)ethyl oxime oxalate]	–	–	–	–
141 °C	COc1ccc(/C(=N/OCCN(C)C)c2cccc3ccccc23)cc1 (as salt: oxalate) [Compound 6c, (4-methoxyphenyl)(naphthalen-1-yl)methanone O-2-(dimethylamino)ethyl oxime oxalate]	–	–	–	–
137 °C	CCN(CC)CCO/N=C(/c1ccc(OC)cc1)c1cccc2ccccc12 (as salt: oxalate) [Compound 6d, (4-methoxyphenyl)(naphthalen-1-yl)methanone O-2-(diethylamino)ethyl oxime oxalate]	–	–	–	–
130 °C	COc1ccc(/C(=N/OCCN(C(C)C)C(C)C)c2cccc3ccccc23)cc1 (as salt: oxalate) [Compound 6e, (4-methoxyphenyl)(naphthalen-1-yl)methanone O-2-(diisopropylamino)ethyl oxime oxalate]	–	–	–	–
–	CSc1ccc(/C(=N/OCCN(C(C)C)C(C)C)c2cccc3ccccc23)cc1 [Compound 5e, (4-(methylthio)phenyl)(naphthalen-1-yl)methanone O-2-(diisopropylamino)ethyl oxime]	7 µM	14 µM	16 µM	–
–	CSc1ccc(/C(=N/OC(C)CN(C)C)c2cccc3ccccc23)cc1 (centres unmarked) [Compound 5g, (4-(methylthio)phenyl)(naphthalen-1-yl)methanone O-1-(dimethylamino)propan-2-yl oxime oxalate]	> 50 µM	> 50 µM	> 50 µM	–
–	CSc1ccc(/C(=N/OCCN2CCCCCC2)c2cccc3ccccc23)cc1 [Compound 5h, (4-(methylthio)phenyl)(naphthalen-1-yl)methanone O-2-(azepan-1-yl)ethyl oxime oxalate]	> 50 µM	> 50 µM	> 50 µM	–
–	CCN(CC)CCO/N=C(/c1ccc(SC)cc1)c1cccc2ccccc12 [Compound 5i, (4-(methylthio)phenyl)(naphthalen-1-yl)methanone O-2-(diethylamino)ethyl oxime citrate]	–	–	–	IC50 (K562; citrate): > 30 µM; IC50 (HL60; citrate): > 50 µM; IC50 (NIH3T3; citrate): 40 µM
–	CCN(CC)CCO/N=C(/c1ccc(SC)cc1)c1cccc2ccccc12 [Compound 5k, (4-(methylthio)phenyl)(naphthalen-1-yl)methanone O-2-(diethylamino)ethyl oxime tartrate]	–	–	–	IC50 (K562; tartrate): > 50 µM; IC50 (HL60; tartrate): > 50 µM; IC50 (NIH3T3; tartrate): > 50 µM
–	CCN(CC)CCO/N=C(/c1ccc(SC)cc1)c1cccc2ccccc12 [Compound 5l, (4-(methylthio)phenyl)(naphthalen-1-yl)methanone O-2-(diethylamino)ethyl oxime]	–	–	–	IC50 (K562): > 50 µM; IC50 (HL60): > 50 µM; IC50 (NIH3T3): > 50 µM
–	CCOC(=O)CO/N=C(/c1ccc(SC)cc1)c1cccc2ccccc12 [Compound 5p, Ethyl 2-((4-(methylthio)phenyl) (naphthalen-1-yl)methyleneaminooxy) acetate]	> 50 µM	15 µM	> 50 µM	–
–	CCN(CC)C(=O)CO/N=C(/c1ccc(SC)cc1)c1cccc2ccccc12 [Compound 5q, N,N-diethyl-2-((4-(methylthio)phenyl) (naphthalen-1-yl)methyleneaminooxy)acetamide]	> 50 µM	> 50 µM	> 50 µM	–
–	COc1ccc(/C(=N/OC(C)CN(C)C)c2cccc3ccccc23)cc1 (centres unmarked) [Compound 6f, (4-methoxyphenyl)(naphthalen-1-yl)methanone O-1-(dimethylamino)propan-2-yl oxime oxalate]	> 50 µM	> 50 µM	> 50 µM	–
–	COc1ccc(/C(=N/OCCN2CCCCCC2)c2cccc3ccccc23)cc1 [Compound 6g, (4-methoxyphenyl)(naphthalen-1-yl)methanone O-2-(azepan-1-yl)ethyl oxime oxalate]	6.66 µM	> 50 µM	16 µM	–
–	COc1ccc(/C(=N/OCCN2CCOCC2)c2cccc3ccccc23)cc1 [Compound 6h, (4-methoxyphenyl)(naphthalen-1-yl)methanone O-2-morpholinoethyl oxime]	19 µM	> 50 µM	26 µM	–
–	CCCCN(C)CCCO/N=C(/c1ccc(SC)cc1)c1cccc2ccccc12 [Compound 7d, (4-(methylthio)phenyl)(naphthalen-1-yl)methanone O-3-(butyl(methyl)amino)propyl oxime]	> 50 µM	13 µM	> 50 µM	–
–	CSc1ccc(/C(=N/OCCCCNCCc2ccccc2)c2cccc3ccccc23)cc1 [Compound 8c, (4-(methylthio)phenyl)(naphthalen-1-yl)methanone O-4-(phenethylamino)butyl oxime]	> 30 µM	> 50 µM	> 50 µM	–
–	CCN(CCCCO/N=C(/c1ccc(SC)cc1)c1cccc2ccccc12)Cc1ccccc1 [Compound 8d, (4-(methylthio)phenyl)(naphthalen-1-yl) methanone O-4-(benzyl(ethyl)amino)butyl oxime]	16.3 µM	> 50 µM	> 50 µM	–
